Laboratory results reported in ChEMBL document CHEMBL1201862, “PubChem BioAssay data set” (2004).
Values joined by “and” are separate entries in the source; they are usually repeats but may differ in a detail not shown here. Equal values may be shown once.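 Growth conditions: 96-well plates. Treatment: test compound, 48 hours, 5 concentrations. Analysis: linear interpolation between bracketing concentrations; unreached endpoints set to highest concentration. GI50 is the concentration that inhibits growth by half.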 Active and inactive are the calls of the source. Cut-off read from the data, not from the text of the source: active = GI50 up to about 1.1 µM and inactive = higher.

What was measured:
Test in all cases: NCI tumour cell line growth inhibition, 48 h
NCI-H226 = tested on: NCI-H226
SF-295 = tested on: SF-295
EKVX = tested on: EKVX
A549 = tested on: A549
HOP-62 = tested on: HOP-62
A498 = tested on: A498
Hs-578T = tested on: Hs-578T
SNB-19 = tested on: SNB-19
IGROV-1 = tested on: IGROV-1
OVCAR-5 = tested on: OVCAR-5
OVCAR-4 = tested on: OVCAR-4
TK-10 = tested on: TK-10
DU-145 = tested on: DU-145
SF-268 = tested on: SF-268
SK-MEL-5 = tested on: SK-MEL-5
786-0 = tested on: 786-0
CAKI-1 = tested on: CAKI-1
Malme-3M = tested on: Malme-3M
HT-29 = tested on: HT-29
K562 = tested on: K562
HL-60 = tested on: HL-60
PC-3 = tested on: PC-3
LOX IMVI = tested on: LOX IMVI
MDA-MB-231 = tested on: MDA-MB-231
OVCAR-8 = tested on: OVCAR-8
M14 = tested on: M14
RXF 393 = tested on: RXF 393
MOLT-4 = tested on: MOLT-4
SW-620 = tested on: SW-620
SNB-75 = tested on: SNB-75
CCRF-CEM = tested on: CCRF-CEM
UACC-257 = tested on: UACC-257
MCF7 = tested on: MCF7
SN12C = tested on: SN12C
HCC 2998 = tested on: HCC 2998
SK-MEL-28 = tested on: SK-MEL-28
SK-OV-3 = tested on: SK-OV-3
KM12 = tested on: KM12
RPMI-8226 = tested on: RPMI-8226
SR = tested on: SR
T47D = tested on: T47D
NCI-H23 = tested on: NCI-H23
COLO 205 = tested on: COLO 205
HOP-92 = tested on: HOP-92
HCT-116 = tested on: HCT-116
NCI-H522 = tested on: NCI-H522
UO-31 = tested on: UO-31
MDA-N = tested on: MDA-N
OVCAR-3 = tested on: OVCAR-3
SK-MEL-2 = tested on: SK-MEL-2
UACC-62 = tested on: UACC-62
ACHN = tested on: ACHN
NCI-H460 = tested on: NCI-H460
MDA-MB-435 = tested on: MDA-MB-435

Structure (SMILES)	GI50 (NCI-H226)	GI50 (SF-295)	GI50 (EKVX)	GI50 (A549)	GI50 (HOP-62)	GI50 (A498)	GI50 (Hs-578T)	GI50 (IGROV-1)	GI50 (DU-145)	GI50 (SK-MEL-5)	GI50 (K562)	GI50 (PC-3)	GI50 (RXF 393)	GI50 (SW-620)	GI50 (CCRF-CEM)	GI50 (HCC 2998)	GI50 (SK-OV-3)	GI50 (KM12)	GI50 (SR)	GI50 (COLO 205)	also measured
Cc1nc2ccc(Br)cc2c(=O)n1-c1ccc(NC2OCC(O)C(O)C2O)cc1 (stereo not drawn)	> 100 µM (inactive)	> 100 µM (inactive)	> 100 µM (inactive)	> 100 µM (inactive)	> 100 µM (inactive)	> 100 µM (inactive)	58.9 µM (inactive)	62.4 µM (inactive)	> 100 µM (inactive)	58.3 µM (inactive)	–	–	–	–	–	–	–	–	–	–	GI50 (SNB-19): > 100 µM (inactive); GI50 (OVCAR-5): > 100 µM (inactive); GI50 (OVCAR-4): > 100 µM (inactive) and 87.5 µM (inactive); GI50 (TK-10): > 100 µM (inactive) and 59.3 µM (inactive); GI50 (SF-268): > 100 µM (inactive) and 55.6 µM (inactive)
CCOC(=O)c1sc2nc(-c3ccccc3)nn2c1CBr	–	9.29 µM (inactive)	> 10 µM (inactive)	5.11 µM (inactive)	> 10 µM (inactive)	–	–	3.17 µM (inactive)	> 10 µM (inactive)	1.77 µM (inactive)	0.589 µM (active)	2.06 µM (inactive)	2.59 µM (inactive)	1.73 µM (inactive)	0.244 µM (active)	5.33 µM (inactive)	3.12 µM (inactive)	2.11 µM (inactive)	0.311 µM (active)	1.9 µM (inactive)	GI50 (786-0): 1.6 µM (inactive); GI50 (CAKI-1): 1.5 µM (inactive); GI50 (Malme-3M): 2.07 µM (inactive); GI50 (HT-29): 1.89 µM (inactive); GI50 (HL-60): 0.348 µM (active); GI50 (LOX IMVI): 1.56 µM (inactive); GI50 (MDA-MB-231): 1.9 µM (inactive); GI50 (OVCAR-8): 2.07 µM (inactive); GI50 (M14): 1.51 µM (inactive); GI50 (MOLT-4): 0.296 µM (active); GI50 (SNB-75): 2.24 µM (inactive); GI50 (UACC-257): 2.16 µM (inactive); GI50 (MCF7): 1.91 µM (inactive); GI50 (SN12C): 1.74 µM (inactive); GI50 (SK-MEL-28): 1.95 µM (inactive); GI50 (RPMI-8226): 1.74 µM (inactive); GI50 (T47D): 2.42 µM (inactive); GI50 (NCI-H23): 1.94 µM (inactive); GI50 (TK-10): 2.34 µM (inactive); GI50 (SF-268): 2.04 µM (inactive)
CC1OC(O[C@H]2/C=C/C=C/C=C/C=C/C=C/C=C/C=C/[C@H](C)[C@@H](O)[C@@H](C)[C@H](C)OC(=O)C[C@H](O)C[C@H](O)CC[C@@H](O)[C@H](O)C[C@H](O)C[C@]3(O)C[C@H](O)[C@@H](C(=O)O)[C@H](C2)O3)C(O)C(N)C1O (stereo partly drawn)	> 100 µM (inactive)	–	–	–	–	–	9.25 µM (inactive)	10 µM (inactive)	–	–	60.4 µM (inactive)	16.3 µM (inactive)	5.64 µM (inactive)	11.6 µM (inactive)	6.15 µM (inactive)	28.5 µM (inactive)	37.3 µM (inactive)	20.5 µM (inactive)	2.35 µM (inactive)	24.3 µM (inactive)	GI50 (786-0): 4.4 µM (inactive); GI50 (HT-29): 21.8 µM (inactive); GI50 (HOP-92): 32.2 µM (inactive); GI50 (HCT-116): 24.3 µM (inactive); GI50 (NCI-H522): 8.87 µM (inactive); GI50 (UO-31): 1.79 µM (inactive); GI50 (MDA-N): 7.69 µM (inactive); GI50 (MCF7): 20.5 µM (inactive); GI50 (OVCAR-3): 15.9 µM (inactive); GI50 (SK-MEL-2): 36.7 µM (inactive); GI50 (OVCAR-4): 18.2 µM (inactive)
O=C1c2scc(-c3ccc(Cl)cc3)c2-n2cccc21	–	> 100 µM (inactive)	2.47 µM (inactive)	> 100 µM (inactive)	–	1.11 µM (active)	1.95 µM (inactive)	3.17 µM (inactive)	> 100 µM (inactive)	> 100 µM (inactive)	3.93 µM (inactive)	> 100 µM (inactive)	> 100 µM (inactive)	> 100 µM (inactive)	> 100 µM (inactive)	> 100 µM (inactive)	> 100 µM (inactive)	5.25 µM (inactive)	2.84 µM (inactive)	> 100 µM (inactive)	GI50 (Malme-3M): > 100 µM (inactive); GI50 (UACC-62): 7.13 µM (inactive); GI50 (ACHN): > 100 µM (inactive); GI50 (NCI-H522): 2.98 µM (inactive); GI50 (LOX IMVI): > 100 µM (inactive); GI50 (MDA-MB-231): 14 µM (inactive); GI50 (M14): 50.5 µM (inactive); GI50 (MDA-N): 8.65 µM (inactive); GI50 (MOLT-4): 73.3 µM (inactive); GI50 (SNB-75): 2.4 µM (inactive); GI50 (UACC-257): > 100 µM (inactive); GI50 (SK-MEL-28): > 100 µM (inactive); GI50 (OVCAR-3): > 100 µM (inactive); GI50 (NCI-H460): > 100 µM (inactive); GI50 (RPMI-8226): > 100 µM (inactive); GI50 (SK-MEL-2): > 100 µM (inactive); GI50 (OVCAR-5): > 100 µM (inactive); GI50 (T47D): > 100 µM (inactive); GI50 (MDA-MB-435): 8.04 µM (inactive)
